# Changes are numbered by the printed parent chain.
# Legend:
# [1] = target: human PNPO R161C variant (holo-enzyme); design: method as in Barile et al. ([2021]); conditions: FMN fluorescence changes, ref Barile et al. ([2021]), read-out: PLP binding KD^FLUO; cited from earlier work
# [2] = target: T1, human PNPO F48A/E50L/R258L variant (Homo sapiens, UniProt Q9NVS9, E50L/F48A/R258L); assay: PLP inhibition kinetics of PNP oxidation, triple variant; assay type: biochemical; conditions: Na-HEPES pH 7.6, 2 μM enzyme, PLP 0–16 μM
# T1 construct: a main form corresponding to the entire protein; made in house; host or cells: E. coli BL21(DE3)
# T1 sequence (Q9NVS9 1-261 F48A/E50L/R258L): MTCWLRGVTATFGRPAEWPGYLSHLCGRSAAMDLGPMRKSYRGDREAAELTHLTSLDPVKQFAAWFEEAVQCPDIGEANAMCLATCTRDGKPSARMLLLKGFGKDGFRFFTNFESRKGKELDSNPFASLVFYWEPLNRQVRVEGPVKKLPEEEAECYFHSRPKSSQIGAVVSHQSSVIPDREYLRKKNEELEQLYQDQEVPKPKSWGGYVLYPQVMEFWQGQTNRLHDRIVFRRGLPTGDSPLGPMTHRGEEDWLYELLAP
# Method: (§1) This is a general inhibition mechanism that takes into account the possibility of PLP binding to both the active and allosteric sites. PLP binding at the active site gives a complete, competitive inhibition, whereas PLP binding at the allosteric site yields a substrate‐enzyme‐PLP ternary complex that is still catalytically active, although k CAT is reduced by a coefficient whose value is around 0.15. A thorough inhibition kinetic characterization was carried out with the wild type, F48A, F48A/E50L/R258L, and F48A/E50L/H248N/R258L PNPO forms, so as to evaluate the effect of the variations on the allosteric properties of the enzyme. The initial velocity of PNP conversion into PLP was measured in Na‐HEPES buffer (in which PLP is allowed to accumulate) by varying substrate concentration at different, fixed exogenous PLP concentrations, using 2 μM enzyme. A series of saturation curves were obtained that were used to fit the Michaelis–Menten equation (Figure 5), acquiring apparent V MAX and K M values as a function of PLP concentration. […]
# (§2) FIGURE 5 Characterization of PLP inhibition. Upper panels: The initial velocity of the reaction was measured with 2 μM wild type (a), and the F48A (b), F48A/E50L/R258L (c), and F48A/E50L/H248N/R258L (d) PNPO variants, varying PNP concentration while keeping exogenous PLP fixed at different concentrations (0, 0.25, 0.5, 1, 2, 4, 8, and 16 μM). […]
# [3] = target: T2, human PNPO 1-31del variant (Homo sapiens, UniProt Q9NVS9); assay: PLP binding by DSF, 1-31del; conditions: 50 mM Na-HEPES pH 7.6, 2 μM enzyme
# T2 construct: a main form corresponding to the entire protein; made in house; host or cells: E. coli BL21(DE3)
# T2 sequence (Q9NVS9 32-261): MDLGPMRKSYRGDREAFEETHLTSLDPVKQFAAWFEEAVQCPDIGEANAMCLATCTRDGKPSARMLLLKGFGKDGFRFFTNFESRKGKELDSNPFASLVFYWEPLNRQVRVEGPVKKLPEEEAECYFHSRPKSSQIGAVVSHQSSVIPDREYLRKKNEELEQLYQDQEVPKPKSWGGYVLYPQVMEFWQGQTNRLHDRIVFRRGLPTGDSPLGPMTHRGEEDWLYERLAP
# Method: FIGURE 2 DSF measurements with F48A (a), F48A/E50L/R258L (b), F48A/E50L/H248N/R258L (c), and 1‐31del PNPO variants in the presence of different PLP concentrations. Upper panels: Fluorescence change is expressed as fractional variation as a function of temperature. The experiment was carried out using 2 μM enzyme and different PLP concentrations (0, 0.78, 1.56, 3.13, 6.25, 12.5, 25, and 50 μM). Thermal denaturation data are fitted to the Boltzmann equation to obtain melting temperatures. Each curve is the average of three independent experiments with standard error bars. Lower panels: Saturation curves obtained by plotting the melting temperatures as a function of the PLP concentration. […] (μM)' of each lower plot.
# [4] = target: T3, human PNPO F48A/E50L/H248N/R258L variant (Homo sapiens, UniProt Q9NVS9, E50L/F48A/H248N/R258L); assay: PLP inhibition kinetics of PNP oxidation, quadruple variant; assay type: biochemical; conditions: Na-HEPES pH 7.6, 2 μM enzyme, PLP 0–16 μM
# T3 construct: a main form corresponding to the entire protein; made in house; host or cells: E. coli BL21(DE3)
# T3 sequence (Q9NVS9 1-261 F48A/E50L/H248N/R258L): T1 sequence (Q9NVS9 1-261 F48A/E50L/R258L) with H248N
# Method: as §1, §2
structure (smiles),measurement,setting,value
"Cc1ncc(COP(=O)(O)O)c(C=O)c1O [PLP, pyridoxal 5′‐phosphate]",Kd,[1],530 ± 80 nM
same,type of inhibition of PNP oxidation by PLP,[2],pure competitive inhibition
same,Kd,[3],3000 ± 300 nM
same,type of inhibition of PNP oxidation by PLP,[4],pure competitive inhibition

# — PMC10804683, “Identification of the pyridoxal 5′‐phosphate allosteric site in human pyridox(am)ine 5′‐phosphate oxidase” (Protein Science : A Publication of the Protein Society, 2024)
